According to paper PMC7083937, “The ribosome-associated complex RAC serves in a relay that directs nascent chains to Ssb” (Nature Communications, 2020):

What was measured:
ribosomes = experiment: ribosome-binding assay; design: species or system Saccharomyces cerevisiae; conditions: for fraction of Ssb ribosome-bound: total cell extract
Method: Yeast strains were grown to early log phase on YPD, prior to harvest cycloheximide was added to a final concentration of 100 µg/ml, and subsequently cells were collected via centrifugation at 5000 g. Cell pellets were resuspended in ribosome-binding buffer (20 mM Hepes/KOH pH 7.4, 2 mM Mg(OAc)2, 120 mM KOAc, 100 µg/ml cycloheximide, 2 mM DTT, 1 mM PMSF, protease inhibitor mix) and total cell extracts were prepared by the glass beads method. After a clearing spin at 20.000 g, each 60 µl of the total glass beads extract (A260 between 80 and 100 mAU) was loaded onto a 90 µl sucrose cushion (25% sucrose, 20 mM Hepes/KOH pH 7.4, 120 mM KOAc, 2 mM Mg(OAc)2, 2 mM DTT, 1 mM PMSF, protease inhibitor mix). After centrifugation at 400.000 g at 4 °C for 25 min the cytosolic supernatant was collected and the ribosomal pellet was resuspended in 300 µl ribosome-binding buffer. Aliquots of the total cell extract, cytosolic supernatant, and resuspended ribosomal pellets were precipitated by addition of TCA (trichloroacetic acid) to a final concentration of 5%. TCA pellets were dissolved in SDS-sample buffer and were analyzed on 10% Tris-Tricine gels followed by immunoblotting.

nascent Pgk1-40 = experiment: crosslinking to ribosome-bound nascent chain; format: binding, Saccharomyces cerevisiae; conditions: wild type translation extract; BS3
Source text: (§1) DNA templates for transcription reactions were generated by PCR using pSPUTK-Pgk1[20] as a template. Reverse primers were designed such, that PCR products encoded different length PGK1 sequences, which all lacked a stop codon. The length of the resulting translation products, which remain ribosome-bound, is indicated in Results and Figure Legends. Transcripts were generated using SP6 polymerase (Thermo Fischer Scientific) as previously described. RNCs were generated via translation reactions primed with the stop codon-less transcripts at 20 °C in the presence of [^35S]-methionine (Hartmann-Analytic) for 80 min[20],[54]. Translation reactions were stopped by the addition of 50 µg/ml cycloheximide final concentration and subsequently RNCs were isolated via centrifugation at 400.000 g for 20 min in a TLA-100 or TLA-100.2 rotor (Beckman Coulter)[20].
(§2) Chemical crosslinking of ribosome-bound nascent chains to Ssb, Zuo1, or Ssz1 was analyzed essentially as described. In brief, resuspended RNCs were incubated in the presence of 400 µM BS^3 (bis-(sulfosuccinimidyl)-suberate, spacer length 1.14 nm, Thermo Scientific) for 20 min on ice and crosslinking was then quenched by the addition of TRIS base (tris(hydroxymethyl)aminomethane) to a final concentration of 50 mM. Crosslinked protein samples were precipitated by the addition of TCA (final concentration 5%), pellets were collected by centrifugation and were dissolved in dissociation buffer (200 mM TRIS/HCl pH 7.5, 4% SDS; 10 mM EDTA, 100 µg/ml BSA, protease inhibitor mix, 1 mM PMSF). Totals shown in Figs. 1,3 and Supplementary Fig. 1 before (total) and after BS^3 crosslinking (total + BS^3) represent 5% of the dissolved material employed for immunoprecipitation reactions. The resulting denatured protein samples were used to identify crosslink products between Ssb, Zuo1, or Ssz1 and nascent chains via affinity purification under denaturing conditions. To that end, protein A sepharose beads (GE Healthcare) were pre-coated with antibodies directed against Ssb, Zuo1, or Ssz1 and subsequently the denatured crosslinked material was allowed to bind to the beads resuspended in immunoprecipitation buffer (10 mM TRIS/HCl pH 7.5, 150 mM NaCl, 5 mM EDTA, 1% Triton X-100, protease inhibitor mix, 0.5 mM PMSF)[20]. Crosslink products bound to protein A sepharose beads were released by addition of SDS-sample buffer at 95 °C for 10 min. Samples were analyzed on Tris-Tricine gels[56] followed by autoradiography. Loading was normalized according to the signal of [^35S]-labelled nascent Pgk1 in the total prior to crosslinking. Relative crosslinking efficiencies between nascent Pgk1-100 and Zuo1 or Ssz1, respectively were determined as follows. For each biological replicate, band intensities of non-crosslinked nascent Pgk1-100 and of Pgk1-100 crosslink products (XL-Zuo1 or XL-Ssz1) was determined on a single autoradiograph for wild type RAC and the different mutant variants of RAC. The crosslinking efficiency (XL-Zuo1/Pgk1-100 or XL-Ssz1/Pgk1-100) of each sample was calculated and subsequently the ratio of XL-Zuo1/Pgk1-100 or XL-Ssz1/Pgk1-100 in the presence of wild type RAC was set to 1 in order to normalize the biological replicates (see Fig. 3c,d). The original data are provided as a Source Data file.

nascent Pgk1-50 = experiment: crosslinking to ribosome-bound nascent chain; format: binding, Saccharomyces cerevisiae; conditions: wild type translation extract; BS3
Source text: as §1, §2

nascent Pgk1-45 = experiment: crosslinking to ribosome-bound nascent chain; format: binding, Saccharomyces cerevisiae; conditions: wild type translation extract; BS3
Source text: as §1, §2

nascent Pgk1-150 = experiment: crosslinking to ribosome-bound nascent chain; format: binding, Saccharomyces cerevisiae; conditions: wild type translation extract; BS3; compared with Pgk1-50
Source text: as §1, §2

nascent Pgk1-100 = experiment: crosslinking to ribosome-bound nascent chain; format: binding, Saccharomyces cerevisiae; conditions: BS3
Source text: as §1, §2
For complementation experiments translation reactions were performed in either ∆ssb1∆ssb2 or ∆ssb1∆ssb2∆zuo1∆ssz1 translation extract as indicated. Complementation with purified Ssb1 was performed by adding His6-tagged ScSsb1 at a final concentration of 2 µM to the translation reaction prior to the addition of mRNA. Ribosome-free cytosolic extract of various mutant yeast strains for complementation experiments as indicated in Results and Figure Legends was generated as follows. The A260 of a total cell extract prepared by the glass beads method (see above) was determined, and the total cell extract was subsequently adjusted to a final concentration of 800 mM KOAc. […]

[1] = Δssb1Δssb2 extract, purified Ssb1, 2 µM, added prior to translation

Ssb: ribosome-associated Hsp70 homolog of yeast, isoforms SSB1 and SSB2
ribosome-binding of Ssb when RAC or Ssz1 is absent from ribosomes, reduced to (ribosomes; in vitro translation system, Zuo1ΔN49, no Ssz1, or no Ssz1 and Zuo1): about 1/3 | fraction of Ssb ribosome-bound (ribosomes; cells expressing RAC-∆N49): about 1/ 3 | fraction of Ssb ribosome-bound (ribosomes; wild type, RAC-∆N8, or RAC-∆N16): About 2/3 | crosslink to nascent Pgk1-40 (nascent Pgk1-40): did not form crosslink products with Pgk1-40 or Pgk1-45 | crosslink to nascent Pgk1-50 (nascent Pgk1-50): weak crosslink | crosslink to nascent Pgk1-45 (nascent Pgk1-45): did not form crosslink products with Pgk1-40 or Pgk1-45 | crosslink to nascent Pgk1-150 (nascent Pgk1-150): more efficient crosslinks | crosslinking of Ssb to nascent Pgk1 when RAC or Ssz1 is absent from ribosomes, reduced to (nascent Pgk1-100; Fig. 1e set-up): < 1/6 | crosslink to nascent Pgk1-100 (nascent Pgk1-100; wild type translation extract, compared with Pgk1-50): more efficient crosslinks | crosslink of Ssb to nascent Pgk1-100 upon adding purified Ssb (nascent Pgk1-100; [1]): restored | effect of added purified Ssb on crosslinking to the RAC subunits (nascent Pgk1-100; [1]): strongly reduced | crosslink of Ssb to nascent Pgk1-100, dependence on RAC (nascent Pgk1-100; Δzuo1Δssz1Δssb1Δssb2 RNCs complemented with ribosome-free extracts): Only in the presence of wild type RAC nascent Pgk1-100 formed an efficient crosslink to Ssb
